From US8791061B2, “Peptides for treating and preventing immune-related disorders, including treating and preventing infection by modulating innate immunity” (Soligenix, Inc., priority 2005, dated 2014)

Experiments:
[1] = test system: methicillin-resistant Staphlococcus aureus (MRSA strain ATCC 33591, UC6685); test: Enhancing the efficacy of antibiotic treatment, MRSA infection of CD-1 mice; type: in vivo; details: peptide 60 mg/kg IP 24 hours prior to infection, in combination with vancomycin s.c. 1 and 5 hours post-infection; relative to vehicle or antibiotic alone; 5 or 8 days
Experimental: Twenty-four hours prior to infection, peptide was administered at 60 mg/kg via IP injection to CD-1 mice (N=10 animals/group; FIG. 8A: male mice, FIG. 8B: female mice). Mice were then infected with methicillin-resistant Staphlococcus aureus (MRSA strain ATCC 33591 in FIG. 8A and UC6685 in FIG. 8B) via IP injection (1.5*10^7 in FIG. 8A and ˜4*10^5 in FIG. 8B). Vancomycin at the given dosage was administered twice subcutaneously 1 and 5 hours post-infection. Survival was monitored over 5 (FIG. 8A) or 8 (FIG. 8B) days.

DPPIV [2] = target: T1, DPPIV (Mus musculus, UniProt P28843); test: Comparative DPPIV dose response curves in whole ICR mouse blood; type: biochemical; details: 2 h at 37° C., different concentrations
T1 construct: The plasma was transferred to a 96-well assay plate for the DPPIV assay; from tissue; host or cells: pooled heparinized whole blood of ICR mice; plasma isolated after incubation
Experimental: Dose response of SEQ. ID. NO. 5 of the present invention and SEQ. ID NO. 7 in PCT/CA02/01830, filed Dec. 2, 2002 (KSRIVPAIPVSLL). Peptides were incubated at different concentrations with whole ICR mouse blood for 2 h at 37° C. Blood incubated with acetate buffered saline (20 mM) was used as a control. Following incubation, plasma was isolated by centrifugation for 10 minutes at 4000 rcf. The substrate Gly-Pro-p-nitroanilide (0.8 mM) was added to the plasma and the enzymatic rate of DPPIV was determined by monitoring the increase in UV absorbance of the product p-nitroaniline. […] ID. NO.

[3] = test system: LPS stimulated cytokine response; test: Anti-inflammatory activity: ex vivo LPS stimulated cytokine response of PBMCs after in vivo peptide treatment; design: species or system mouse; details: 100 mg/kg intravenously, blood collected after 4 hours, PBMCs stimulated with LPS
Experimental: The effect of peptide treatment on the ex vivo LPS stimulated cytokine response was measured. In these studies, SEQ ID NO 5 was administered intravenously at 100 mg/kg and after 4 hours, blood was collected from each mouse. PBMCs were isolated and stimulated with LPS and the resulting cytokine levels were determined.

DPPIV [4] = target: T2, DPPIV (Homo sapiens, UniProt P27487); test: Plasma DPPIV activity assay with human blood; type: biochemical; details: 2 hours at 37° C., dose response
T2 construct: from tissue; host or cells: heparinized whole blood of human volunteer donors; plasma isolated after incubation
Experimental: Human blood was obtained by qualified medical personnel from volunteer donors and collected in heparinized blood collection tubes. Blood was aliquoted into 300 μL aliquots. The peptides were dissolved in acetate buffered saline, pH 5.5. 30 μL of various concentrations were added to 300 μL of blood and mixed by resuspension (final concentration in blood as indicated in FIG. 6). For the control, 30 μL of blank acetate buffered saline was added to 300 μL of blood. Each concentration was prepared in triplicate, whereas the control was prepared in six replicates. The samples were incubated at 37° C. in closed microtubes for two hours. After incubation the plasma was isolated from the samples by centrifugation at 4000 rcf. The plasma was transferred to a 96-well assay plate for the DPPIV assay. The assay was started by adding 5 μL of the DPPIV substrate gly-pro-p-nitroanilide (16 mM in de-ionized water) to 95 μL of plasma (concentration in plasma 0.8 mM) and the increase in UV absorbance (405 nm) was monitored over a 20 min time period. The rate of the production of p-nitroaniline by enzymatic cleavage of gly-pro-p-nitroanilide was taken as the activity of DPPIV (Durinx C et al., (2001) “Reference values for plasma dipeptidyl-peptidase IV activity and their association with other laboratory parameters”. Clin Chem Lab Med. 39(2):155-9.)

T1 sequence (P28843 37-760 limits assumed): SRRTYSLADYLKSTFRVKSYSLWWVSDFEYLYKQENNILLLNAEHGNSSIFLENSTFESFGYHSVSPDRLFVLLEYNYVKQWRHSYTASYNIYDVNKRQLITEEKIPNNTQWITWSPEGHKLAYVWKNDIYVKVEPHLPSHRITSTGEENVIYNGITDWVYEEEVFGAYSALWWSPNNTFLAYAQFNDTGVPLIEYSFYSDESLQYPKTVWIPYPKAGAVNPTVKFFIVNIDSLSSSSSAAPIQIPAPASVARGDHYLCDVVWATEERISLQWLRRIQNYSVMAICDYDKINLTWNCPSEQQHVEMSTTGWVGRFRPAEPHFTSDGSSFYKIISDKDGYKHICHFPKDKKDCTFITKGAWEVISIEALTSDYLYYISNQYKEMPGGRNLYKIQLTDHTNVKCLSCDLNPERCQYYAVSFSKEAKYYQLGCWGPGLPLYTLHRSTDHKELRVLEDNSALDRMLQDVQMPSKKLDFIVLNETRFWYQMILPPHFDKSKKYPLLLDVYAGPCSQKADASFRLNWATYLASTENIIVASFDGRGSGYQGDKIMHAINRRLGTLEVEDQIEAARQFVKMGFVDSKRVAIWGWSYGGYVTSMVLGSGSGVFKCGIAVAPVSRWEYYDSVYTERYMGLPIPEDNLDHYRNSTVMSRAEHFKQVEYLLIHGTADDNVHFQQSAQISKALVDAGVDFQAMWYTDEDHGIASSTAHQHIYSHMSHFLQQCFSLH
T2 sequence (P27487 39-766 limits assumed): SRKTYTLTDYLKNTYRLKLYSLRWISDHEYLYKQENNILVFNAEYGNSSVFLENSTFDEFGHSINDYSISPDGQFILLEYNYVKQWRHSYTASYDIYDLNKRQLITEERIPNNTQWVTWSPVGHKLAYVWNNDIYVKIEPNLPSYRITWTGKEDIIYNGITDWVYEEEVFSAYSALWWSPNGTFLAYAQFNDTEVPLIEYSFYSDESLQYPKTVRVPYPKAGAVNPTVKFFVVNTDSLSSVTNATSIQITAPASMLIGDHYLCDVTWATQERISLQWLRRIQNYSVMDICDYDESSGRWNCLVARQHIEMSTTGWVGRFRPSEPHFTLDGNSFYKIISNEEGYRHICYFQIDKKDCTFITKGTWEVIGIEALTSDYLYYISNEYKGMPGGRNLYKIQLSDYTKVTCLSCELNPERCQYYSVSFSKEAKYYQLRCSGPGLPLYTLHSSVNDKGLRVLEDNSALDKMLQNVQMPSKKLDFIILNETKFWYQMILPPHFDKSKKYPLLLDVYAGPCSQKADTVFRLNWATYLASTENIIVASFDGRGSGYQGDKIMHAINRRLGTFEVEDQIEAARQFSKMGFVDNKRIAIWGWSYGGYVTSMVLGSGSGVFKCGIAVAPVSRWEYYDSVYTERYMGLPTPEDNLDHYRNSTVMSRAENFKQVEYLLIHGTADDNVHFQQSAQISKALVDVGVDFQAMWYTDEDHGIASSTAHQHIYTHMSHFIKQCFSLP

| Substance | survival [1] | DPPIV dose response (DPPIV [2]) | inflammatory response to LPS stimulation (cytokine levels) [3] | plasma DPPIV activity in human blood (DPPIV [4]) |
| --- | --- | --- | --- | --- |
| KSRIVP (IMMUNOLOGICAL PEPTIDE) [SEQ ID NO 1] | enhanced survival | – | – | – |
| KSRIVPAIPVSLL [ID NO; 7 in PCT/CA02/01830, filed Dec; 2, 2002, reference compound] | – | A similar dose response was absent | – | – |
| RIVPA [SEQ ID NO 5] | enhanced survival | larger decrease in DPPIV activity with increasing peptide concentration | decreased inflammatory response to LPS stimulation | comparable to that determined in mouse blood |
